Tests used:
Assay in all cases: radiometric filter-binding kinase assay, Kinase HotSpot
Conditions in all cases: compound 0.5 µM; ATP 10 µM
CSF1R (human) = CSF1R (human) (UniProt P07333)
MET (human) = MET (human) (UniProt P08581)
LTK (human) = LTK (human) (UniProt P29376)
AKT3 (human) = AKT3 (human) (UniProt Q9Y243)
NEK2 (human) = NEK2 (human) (UniProt P51955)
MAP3K10 (human) = MAP3K10 (human) (UniProt Q02779)
PTK2 (human) = PTK2 (human) (UniProt Q05397)
TAOK1 (human) = TAOK1 (human) (UniProt Q7L7X3)
PASK (human) = PASK (human) (UniProt Q96RG2)
PTK6 (human) = PTK6 (human) (UniProt Q13882)
MAPK14 (human) = MAPK14 (human) (UniProt Q16539)
STK10 (human) = STK10 (human) (UniProt O94804)
SGK2 (human) = SGK2 (human) (UniProt Q9HBY8)
MAPKAPK5 (human) = MAPKAPK5 (human) (UniProt Q8IW41)
RAF1 (human) = RAF1 (human) (UniProt P04049)
FGFR3 (human) = FGFR3 (human) (UniProt P22607)
CAMK4 (human) = CAMK4 (human) (UniProt Q16566)
CSNK1E (human) = CSNK1E (human) (UniProt P49674)
PRKCD (human) = PRKCD (human) (UniProt Q05655)
ROCK1 (human) = ROCK1 (human) (UniProt Q13464)
JAK3 JH1 JH2 (human) = JAK3 JH1 JH2 (human) (UniProt P52333)
ERBB4 (human) = ERBB4 (human) (UniProt Q15303)
ERBB2 (human) = ERBB2 (human) (UniProt P04626)
RPS6KA2 KD1 KD2 (human) = RPS6KA2 KD1 KD2 (human) (UniProt Q15349)
STK11 (human) = STK11 (human) (UniProt Q15831)
CDK5 CDK5R1 p25 (human) = CDK5 CDK5R1 p25 (human) (UniProt Q00535+Q15078)
ACVR1 (human) = ACVR1 (human) (UniProt Q04771)
BMX (human) = BMX (human) (UniProt P51813)
FGFR4 (human) = FGFR4 (human) (UniProt P22455)
FGFR2 (human) = FGFR2 (human) (UniProt P21802)
MINK1 (human) = MINK1 (human) (UniProt Q8N4C8)
MKNK2 (human) = MKNK2 (human) (UniProt Q9HBH9)
MAPK3 (human) = MAPK3 (human) (UniProt P27361)
MAP4K4 (human) = MAP4K4 (human) (UniProt O95819)
STK16 (human) = STK16 (human) (UniProt O75716)
TNK2 (human) = TNK2 (human) (UniProt Q07912)
MAPK12 (human) = MAPK12 (human) (UniProt P53778)
SRMS (human) = SRMS (human) (UniProt Q9H3Y6)
CLK4 (human) = CLK4 (human) (UniProt Q9HAZ1)
TYRO3 (human) = TYRO3 (human) (UniProt Q06418)
PLK1 (human) = PLK1 (human) (UniProt P53350)
RPS6KB2 (human) = RPS6KB2 (human) (UniProt Q9UBS0)
RPS6KB2 (human), sequence (Q9UBS0 whole entry, looked up): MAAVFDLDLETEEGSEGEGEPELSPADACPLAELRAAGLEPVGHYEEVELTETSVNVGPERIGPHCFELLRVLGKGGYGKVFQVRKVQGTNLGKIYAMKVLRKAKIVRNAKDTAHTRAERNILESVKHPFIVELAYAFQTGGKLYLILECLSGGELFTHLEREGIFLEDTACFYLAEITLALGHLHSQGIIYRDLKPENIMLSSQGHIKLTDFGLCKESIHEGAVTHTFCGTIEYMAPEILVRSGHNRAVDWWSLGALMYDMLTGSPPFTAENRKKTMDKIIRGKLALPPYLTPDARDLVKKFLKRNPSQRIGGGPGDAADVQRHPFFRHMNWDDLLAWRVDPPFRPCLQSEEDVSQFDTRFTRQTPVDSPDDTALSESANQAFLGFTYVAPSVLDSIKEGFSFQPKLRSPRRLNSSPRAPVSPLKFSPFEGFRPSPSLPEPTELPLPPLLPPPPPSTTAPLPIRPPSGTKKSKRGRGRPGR

MAPKAPK5 (human), sequence (Q8IW41 whole entry, looked up): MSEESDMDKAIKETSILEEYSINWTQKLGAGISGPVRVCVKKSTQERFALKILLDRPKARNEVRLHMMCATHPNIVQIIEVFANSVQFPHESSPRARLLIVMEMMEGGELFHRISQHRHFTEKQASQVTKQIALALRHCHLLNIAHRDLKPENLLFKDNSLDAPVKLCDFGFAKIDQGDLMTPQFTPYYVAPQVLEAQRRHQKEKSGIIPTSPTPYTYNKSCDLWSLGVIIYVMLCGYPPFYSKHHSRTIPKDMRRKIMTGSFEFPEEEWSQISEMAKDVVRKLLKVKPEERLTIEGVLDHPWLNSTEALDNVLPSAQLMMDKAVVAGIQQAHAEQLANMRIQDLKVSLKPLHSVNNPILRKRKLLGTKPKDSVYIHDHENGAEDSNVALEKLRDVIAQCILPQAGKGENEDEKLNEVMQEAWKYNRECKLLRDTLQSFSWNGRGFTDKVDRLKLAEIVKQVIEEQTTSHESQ
FGFR2 (human), sequence (P21802 whole entry, looked up): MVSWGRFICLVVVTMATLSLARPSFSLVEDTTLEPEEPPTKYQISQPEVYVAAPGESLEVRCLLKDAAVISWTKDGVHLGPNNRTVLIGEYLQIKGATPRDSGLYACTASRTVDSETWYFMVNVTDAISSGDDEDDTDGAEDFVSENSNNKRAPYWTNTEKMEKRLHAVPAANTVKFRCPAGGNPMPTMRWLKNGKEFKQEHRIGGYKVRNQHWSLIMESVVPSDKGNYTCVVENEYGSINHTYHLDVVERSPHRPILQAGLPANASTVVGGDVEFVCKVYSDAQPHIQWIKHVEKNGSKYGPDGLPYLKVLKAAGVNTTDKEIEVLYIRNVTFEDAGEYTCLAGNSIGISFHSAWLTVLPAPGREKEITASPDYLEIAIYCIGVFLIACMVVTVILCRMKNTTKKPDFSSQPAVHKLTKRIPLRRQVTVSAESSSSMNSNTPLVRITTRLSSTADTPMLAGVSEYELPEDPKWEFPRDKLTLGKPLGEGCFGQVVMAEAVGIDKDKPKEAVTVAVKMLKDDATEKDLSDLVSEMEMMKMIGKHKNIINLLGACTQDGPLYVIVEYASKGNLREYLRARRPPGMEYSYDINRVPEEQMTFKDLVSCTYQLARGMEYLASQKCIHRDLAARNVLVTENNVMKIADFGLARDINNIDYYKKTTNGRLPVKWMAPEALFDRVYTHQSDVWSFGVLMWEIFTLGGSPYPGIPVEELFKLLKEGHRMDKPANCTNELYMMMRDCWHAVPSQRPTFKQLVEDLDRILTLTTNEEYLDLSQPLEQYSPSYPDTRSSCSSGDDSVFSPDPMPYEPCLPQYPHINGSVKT
CLK4 (human), sequence (Q9HAZ1 whole entry, looked up): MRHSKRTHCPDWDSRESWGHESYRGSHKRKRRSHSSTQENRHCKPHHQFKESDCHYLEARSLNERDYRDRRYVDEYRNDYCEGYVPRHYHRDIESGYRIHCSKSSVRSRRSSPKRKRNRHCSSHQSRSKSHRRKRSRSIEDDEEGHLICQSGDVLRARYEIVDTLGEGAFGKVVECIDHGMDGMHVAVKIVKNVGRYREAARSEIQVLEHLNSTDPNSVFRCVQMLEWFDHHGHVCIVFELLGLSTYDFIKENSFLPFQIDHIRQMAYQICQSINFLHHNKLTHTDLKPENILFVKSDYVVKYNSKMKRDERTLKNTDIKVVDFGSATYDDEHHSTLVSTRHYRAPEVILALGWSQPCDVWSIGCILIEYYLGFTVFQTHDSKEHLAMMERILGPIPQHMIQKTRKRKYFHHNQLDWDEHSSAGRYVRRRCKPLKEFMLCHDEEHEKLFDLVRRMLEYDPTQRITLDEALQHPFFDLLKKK
PRKCD (human), sequence (Q05655 whole entry, looked up): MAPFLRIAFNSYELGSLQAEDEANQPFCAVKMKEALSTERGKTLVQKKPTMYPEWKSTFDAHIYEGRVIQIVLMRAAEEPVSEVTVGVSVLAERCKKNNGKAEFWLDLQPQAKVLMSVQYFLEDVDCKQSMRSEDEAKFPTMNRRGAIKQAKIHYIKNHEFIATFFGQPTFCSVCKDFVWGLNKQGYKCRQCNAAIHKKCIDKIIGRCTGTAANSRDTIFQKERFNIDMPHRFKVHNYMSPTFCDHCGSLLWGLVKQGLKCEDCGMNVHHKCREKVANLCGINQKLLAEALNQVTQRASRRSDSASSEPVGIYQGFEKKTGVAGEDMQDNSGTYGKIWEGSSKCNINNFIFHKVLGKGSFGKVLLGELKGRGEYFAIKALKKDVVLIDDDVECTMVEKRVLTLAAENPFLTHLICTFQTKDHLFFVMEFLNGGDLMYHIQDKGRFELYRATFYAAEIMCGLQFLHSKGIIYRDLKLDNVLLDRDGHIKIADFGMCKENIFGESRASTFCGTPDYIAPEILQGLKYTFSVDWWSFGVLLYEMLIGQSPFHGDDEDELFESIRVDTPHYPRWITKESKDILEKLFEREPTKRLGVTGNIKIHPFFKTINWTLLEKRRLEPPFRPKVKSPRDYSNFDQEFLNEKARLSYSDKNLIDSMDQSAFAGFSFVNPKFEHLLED
PASK (human), sequence (Q96RG2 whole entry, looked up): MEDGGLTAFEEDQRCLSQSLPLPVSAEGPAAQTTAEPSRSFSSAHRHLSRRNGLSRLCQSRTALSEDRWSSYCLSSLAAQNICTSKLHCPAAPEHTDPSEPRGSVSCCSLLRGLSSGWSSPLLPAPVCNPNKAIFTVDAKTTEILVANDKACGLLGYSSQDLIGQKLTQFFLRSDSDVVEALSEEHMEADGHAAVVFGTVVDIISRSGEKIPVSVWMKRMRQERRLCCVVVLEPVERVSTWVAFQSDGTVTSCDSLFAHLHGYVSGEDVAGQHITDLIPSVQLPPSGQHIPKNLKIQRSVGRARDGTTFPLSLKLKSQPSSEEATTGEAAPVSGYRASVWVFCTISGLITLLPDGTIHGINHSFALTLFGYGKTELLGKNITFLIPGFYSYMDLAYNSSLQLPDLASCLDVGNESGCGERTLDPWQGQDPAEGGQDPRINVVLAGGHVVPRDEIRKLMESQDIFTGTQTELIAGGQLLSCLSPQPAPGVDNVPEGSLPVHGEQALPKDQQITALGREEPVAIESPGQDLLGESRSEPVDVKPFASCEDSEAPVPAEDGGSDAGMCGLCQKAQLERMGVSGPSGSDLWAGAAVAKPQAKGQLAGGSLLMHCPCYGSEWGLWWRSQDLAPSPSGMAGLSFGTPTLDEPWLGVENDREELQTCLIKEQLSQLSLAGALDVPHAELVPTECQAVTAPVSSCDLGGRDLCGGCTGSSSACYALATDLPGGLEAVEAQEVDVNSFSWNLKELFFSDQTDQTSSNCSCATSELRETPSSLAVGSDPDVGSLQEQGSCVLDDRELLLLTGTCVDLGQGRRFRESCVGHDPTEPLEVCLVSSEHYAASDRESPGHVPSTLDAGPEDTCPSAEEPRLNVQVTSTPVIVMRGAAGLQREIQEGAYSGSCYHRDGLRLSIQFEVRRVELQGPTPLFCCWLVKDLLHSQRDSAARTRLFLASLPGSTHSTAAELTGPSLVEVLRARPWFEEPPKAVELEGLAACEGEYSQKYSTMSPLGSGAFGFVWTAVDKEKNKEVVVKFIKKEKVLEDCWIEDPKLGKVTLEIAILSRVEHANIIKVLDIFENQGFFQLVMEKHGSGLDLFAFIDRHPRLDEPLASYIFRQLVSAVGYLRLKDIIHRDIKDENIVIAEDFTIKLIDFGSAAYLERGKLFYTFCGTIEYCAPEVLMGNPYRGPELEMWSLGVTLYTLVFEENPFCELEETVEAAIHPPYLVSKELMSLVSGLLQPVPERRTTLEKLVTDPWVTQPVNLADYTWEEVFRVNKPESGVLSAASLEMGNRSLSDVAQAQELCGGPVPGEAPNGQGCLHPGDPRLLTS
FGFR3 (human), sequence (P22607 whole entry, looked up): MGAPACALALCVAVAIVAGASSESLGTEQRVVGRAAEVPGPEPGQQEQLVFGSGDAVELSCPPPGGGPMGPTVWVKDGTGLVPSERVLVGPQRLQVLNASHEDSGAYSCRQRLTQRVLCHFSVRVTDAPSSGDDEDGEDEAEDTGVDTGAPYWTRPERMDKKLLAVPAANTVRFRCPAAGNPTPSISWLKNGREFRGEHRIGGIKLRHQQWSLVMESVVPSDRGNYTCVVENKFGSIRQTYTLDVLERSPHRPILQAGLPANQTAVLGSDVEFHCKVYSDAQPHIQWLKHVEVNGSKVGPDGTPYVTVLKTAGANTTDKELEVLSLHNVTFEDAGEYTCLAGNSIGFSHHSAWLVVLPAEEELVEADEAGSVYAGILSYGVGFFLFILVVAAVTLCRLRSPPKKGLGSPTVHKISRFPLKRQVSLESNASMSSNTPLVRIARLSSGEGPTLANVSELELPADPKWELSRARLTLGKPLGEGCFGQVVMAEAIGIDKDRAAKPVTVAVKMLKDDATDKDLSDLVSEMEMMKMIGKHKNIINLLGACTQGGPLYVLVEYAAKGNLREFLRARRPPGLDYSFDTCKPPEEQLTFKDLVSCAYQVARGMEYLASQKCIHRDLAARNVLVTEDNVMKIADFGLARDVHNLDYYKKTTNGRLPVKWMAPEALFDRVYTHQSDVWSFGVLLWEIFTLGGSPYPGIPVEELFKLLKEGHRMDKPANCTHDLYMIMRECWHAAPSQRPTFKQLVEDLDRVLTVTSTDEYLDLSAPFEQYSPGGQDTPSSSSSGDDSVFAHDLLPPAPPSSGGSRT

For Cc1cc(Nc2nc(-c3ccccc3)nc3ccccc23)n[nH]1, the residual activity (CSF1R (human)) was 33.1%, the residual activity (MET (human)) was 130% and the residual activity (LTK (human)) was 63.6%. The residual activity (AKT3 (human)) was 95.5%, the residual activity (NEK2 (human)) was 99.3% and the residual activity (MAP3K10 (human)) was 75.4%. It also gave a residual activity (PTK2 (human)) of 59.9%, a residual activity (TAOK1 (human)) of 115% and a residual activity (PASK (human)) of 96.4%. It also gave a residual activity (PTK6 (human)) of 61.6%, a residual activity (MAPK14 (human)) of 103% and a residual activity (STK10 (human)) of 56.2%. The residual activity (SGK2 (human)) was 99.7%, the residual activity (MAPKAPK5 (human)) was 93.2% and the residual activity (RAF1 (human)) was 99.8%. It also gave a residual activity (FGFR3 (human)) of 71.7%, a residual activity (CAMK4 (human)) of 94.1% and a residual activity (CSNK1E (human)) of 97.4%. For the same molecule, the residual activity (PRKCD (human)) was 91.3%, the residual activity (ROCK1 (human)) was 98.8% and the residual activity (JAK3 JH1 JH2 (human)) was 96.7%. It also gave a residual activity (ERBB4 (human)) of 92%, a residual activity (ERBB2 (human)) of 108% and a residual activity (RPS6KA2 KD1 KD2 (human)) of 50.7%. It also gave a residual activity (STK11 (human)) of 69%, a residual activity (CDK5 CDK5R1 p25 (human)) of 98.7% and a residual activity (ACVR1 (human)) of 149%. For the same molecule, the residual activity (BMX (human)) was 41.1%, the residual activity (FGFR4 (human)) was 81.9% and the residual activity (FGFR2 (human)) was 83.7%. It also gave a residual activity (MINK1 (human)) of 35.6%, a residual activity (MKNK2 (human)) of 71.8% and a residual activity (MAPK3 (human)) of 80.8%. It also gave a residual activity (MAP4K4 (human)) of 25.7%, a residual activity (STK16 (human)) of 24.7% and a residual activity (TNK2 (human)) of 10.8%. The residual activity (MAPK12 (human)) was 86.8%, the residual activity (SRMS (human)) was 98.7% and the residual activity (CLK4 (human)) was 34.3%. The residual activity (TYRO3 (human)) was 94.2%, the residual activity (PLK1 (human)) was 97.1% and the residual activity (RPS6KB2 (human)) was 99.7%.
O=C1NC(=O)c2cc(Nc3ccc(F)cc3)c(Nc3ccc(F)cc3)cc21 showed a residual activity (CSF1R (human)) of 104%, a residual activity (MET (human)) of 96.7% and a residual activity (LTK (human)) of 99.7%. It also gave a residual activity (AKT3 (human)) of 100%, a residual activity (NEK2 (human)) of 96.3% and a residual activity (MAP3K10 (human)) of 90.6%. For the same molecule, the residual activity (PTK2 (human)) was 96%, the residual activity (TAOK1 (human)) was 90.3% and the residual activity (PASK (human)) was 91.3%. For the same molecule, the residual activity (PTK6 (human)) was 95.1%, the residual activity (MAPK14 (human)) was 88.3% and the residual activity (STK10 (human)) was 79.2%. For the same molecule, the residual activity (SGK2 (human)) was 99.7%, the residual activity (MAPKAPK5 (human)) was 93.4% and the residual activity (RAF1 (human)) was 81.9%. It also gave a residual activity (FGFR3 (human)) of 99.7%, a residual activity (CAMK4 (human)) of 98.7% and a residual activity (CSNK1E (human)) of 98%. For the same molecule, the residual activity (PRKCD (human)) was 98.2%, the residual activity (ROCK1 (human)) was 96.7% and the residual activity (JAK3 JH1 JH2 (human)) was 93.9%. It also gave a residual activity (ERBB4 (human)) of 99.4%, a residual activity (ERBB2 (human)) of 107% and a residual activity (RPS6KA2 KD1 KD2 (human)) of 98.7%. It also gave a residual activity (STK11 (human)) of 98.2%, a residual activity (CDK5 CDK5R1 p25 (human)) of 85.9% and a residual activity (ACVR1 (human)) of 92.3%. The residual activity (BMX (human)) was 95.3%, the residual activity (FGFR4 (human)) was 95.5% and the residual activity (FGFR2 (human)) was 102%. It also gave a residual activity (MINK1 (human)) of 99%, a residual activity (MKNK2 (human)) of 101% and a residual activity (MAPK3 (human)) of 86.1%. It also gave a residual activity (MAP4K4 (human)) of 91.2%, a residual activity (STK16 (human)) of 85.8% and a residual activity (TNK2 (human)) of 93.2%. It also gave a residual activity (MAPK12 (human)) of 93.6%, a residual activity (SRMS (human)) of 95.5% and a residual activity (CLK4 (human)) of 88.6%. The residual activity (TYRO3 (human)) was 94.8%, the residual activity (PLK1 (human)) was 99.9% and the residual activity (RPS6KB2 (human)) was 93.9%.
O=c1c(-c2ccc(F)cc2)c(-c2ccncc2)[nH]n1-c1ccc(Cl)cc1 was tested, and the residual activity (CSF1R (human)) was 102%, the residual activity (MET (human)) was 101% and the residual activity (LTK (human)) was 75.5%. The residual activity (AKT3 (human)) was 94.3%, the residual activity (NEK2 (human)) was 85.4% and the residual activity (MAP3K10 (human)) was 88.1%. For the same molecule, the residual activity (PTK2 (human)) was 95.1%, the residual activity (TAOK1 (human)) was 102% and the residual activity (PASK (human)) was 93.6%. The residual activity (PTK6 (human)) was 57.5%, the residual activity (MAPK14 (human)) was 11.2% and the residual activity (STK10 (human)) was 81.9%. It also gave a residual activity (SGK2 (human)) of 94.3%, a residual activity (MAPKAPK5 (human)) of 99.7% and a residual activity (RAF1 (human)) of 61.4%. The residual activity (FGFR3 (human)) was 88.1%, the residual activity (CAMK4 (human)) was 104% and the residual activity (CSNK1E (human)) was 35%. For the same molecule, the residual activity (PRKCD (human)) was 92.6%, the residual activity (ROCK1 (human)) was 109% and the residual activity (JAK3 JH1 JH2 (human)) was 106%. The residual activity (ERBB4 (human)) was 73.2%, the residual activity (ERBB2 (human)) was 103% and the residual activity (RPS6KA2 KD1 KD2 (human)) was 91.8%. The residual activity (STK11 (human)) was 98.8%, the residual activity (CDK5 CDK5R1 p25 (human)) was 76.3% and the residual activity (ACVR1 (human)) was 91.7%. It also gave a residual activity (BMX (human)) of 95.8%, a residual activity (FGFR4 (human)) of 92.4% and a residual activity (FGFR2 (human)) of 94%. It also gave a residual activity (MINK1 (human)) of 97.3%, a residual activity (MKNK2 (human)) of 97.2% and a residual activity (MAPK3 (human)) of 103%. The residual activity (MAP4K4 (human)) was 93.5%, the residual activity (STK16 (human)) was 100% and the residual activity (TNK2 (human)) was 91.2%. The residual activity (MAPK12 (human)) was 85.2%, the residual activity (SRMS (human)) was 104% and the residual activity (CLK4 (human)) was 78.9%. It also gave a residual activity (TYRO3 (human)) of 105%, a residual activity (PLK1 (human)) of 98.3% and a residual activity (RPS6KB2 (human)) of 95.5%.
With c1ccc(-c2cnc(Nc3ccc(OCCN4CCCC4)cc3)s2)cc1 the residual activity (CSF1R (human)) was 38.4%, the residual activity (MET (human)) was 89.7% and the residual activity (LTK (human)) was 93.8%. The residual activity (NEK2 (human)) was 90.6%, the residual activity (MAP3K10 (human)) was 95.7% and the residual activity (PTK2 (human)) was 98.3%. It also gave a residual activity (PASK (human)) of 96.4%, a residual activity (PTK6 (human)) of 80.8% and a residual activity (MAPK14 (human)) of 103%. The residual activity (STK10 (human)) was 76.9%, the residual activity (SGK2 (human)) was 101% and the residual activity (MAPKAPK5 (human)) was 83.4%. It also gave a residual activity (RAF1 (human)) of 99%, a residual activity (FGFR3 (human)) of 98.2% and a residual activity (CAMK4 (human)) of 97.2%. The residual activity (CSNK1E (human)) was 81.2%, the residual activity (PRKCD (human)) was 91.3% and the residual activity (ROCK1 (human)) was 102%. It also gave a residual activity (JAK3 JH1 JH2 (human)) of 108%, a residual activity (ERBB4 (human)) of 101% and a residual activity (ERBB2 (human)) of 101%. For the same molecule, the residual activity (RPS6KA2 KD1 KD2 (human)) was 85%, the residual activity (STK11 (human)) was 103% and the residual activity (CDK5 CDK5R1 p25 (human)) was 80.7%. It also gave a residual activity (ACVR1 (human)) of 164%, a residual activity (BMX (human)) of 84.5% and a residual activity (FGFR4 (human)) of 95.6%. The residual activity (FGFR2 (human)) was 92.7%, the residual activity (MINK1 (human)) was 38.7% and the residual activity (MKNK2 (human)) was 18.6%. It also gave a residual activity (MAPK3 (human)) of 99.8%, a residual activity (MAP4K4 (human)) of 35.5% and a residual activity (STK16 (human)) of 92%. The residual activity (TNK2 (human)) was 66.6%, the residual activity (MAPK12 (human)) was 93.6% and the residual activity (SRMS (human)) was 96.5%. It also gave a residual activity (CLK4 (human)) of 97.9%, a residual activity (TYRO3 (human)) of 90.9% and a residual activity (PLK1 (human)) of 101%. For the same molecule, the residual activity (RPS6KB2 (human)) was 92.7%.

— the kinase profiling compilation of Christmann-Franck et al. (2016)
